Assay results reported in patent publication US20210009673A1, “METHODS FOR REGULATING BREAST CANCERS” (priority 2018, published 2021).

Experiments:
[1] = system: β-catenin; test: tyrosine phosphorylation of β-catenin in MCF-7-EGFR/RPTPβ/ζ cells expressing ALK; format: cell-based
Procedure: (§1) FIG. 1: FIG. 1 illustrates in (A) PTN stimulation of tyrosine phosphorylation of β-catenin in cells that express RPTPβ/ζ and ALK. COS7 cells transiently expressing ALK and RPTPβ/ζ were stimulated with 10 ng PTN/ml. Cell lysates were prepared and used to immunoprecipitate β-catenin. The immunoprecipitates were analyzed in Western blots probed with anti-phosphotyrosine antibodies. Lane 1, cells transfected with ALK that were not stimulated with PTN. Lane 2, cells transfected with ALK stimulated with PTN. Lane 3, cells transfected with empty vector not stimulated with PTN. Lane 4, cells transfected with empty vector stimulated with PTN. In (B), ALK and RPTPβ/ζ, but not Src, are necessary for PTN to stimulate tyrosine phosphorylation of activation of β-catenin. U87MG cells and U87MG cells that had been transfected with an shRNA targeting either RPTPβ/ζ or ALK or preincubated with the src inhibitor PP2 were stimulated with 50 ng PTN/ml or not (control) and cell lysates used to immunoprecipitate β-catenin. The immunoprecipitates were analyzed in Western blots probed with anti-phosphotyrosine antibodies. […] Cell lysates were used to immunoprecipitate β-catenin and the immunoprecipitates were analyzed in Western blots probed with anti-phospho-tyrosine antibodies and reprobed with anti-β-catenin antibodies. […] MCF-7 cells that stably express EGFR/RPTPβ/ζ not transfected with ALK were analyzed as above. […] Lysates of MCF-7 cells and lysates of MCF-7 cells stimulated with EGF were used to immunoprecipitate β-catenin and the immunoprecipitates were analyzed in Western blots probed with anti-phospho-tyrosine antibodies and separately with anti-β-catenin antibodies. Lysates of MCF-7 cells transfected with ALK and stimulated with PTN, EGF or pervanadate were immunoprecipitated with anti-β-catenin antibodies and the immunoprecipitates were analyzed in Western blots probed with anti-phospho-tyrosine antibodies and separately with anti-β-catenin antibodies. […]

[2] = system: Akt; test: phosphorylation of Akt in PTN-stimulated HUVS cells; format: cell-based, human; conditions: cells preincubated with EGFR inhibitor; PTN 2-20 minutes
Procedure: FIG. 11: FIG. 11 illustrates: human umbilical vein stromal cells not stimulated or stimulated with 50 ng/ml of PTN for 2, 5, 10 or 20 minutes were used to prepare cell lysates that were analyzed in Western blots probed with anti-phospho threonine 308 Akt (panel A), anti-phospho serine 473 Akt (panel B), anti-phospho-serine 9 GSK3β (panel C), anti-phospho-serine 33, 37 and […] β-catenin (panel D) or anti-actin antibodies (panel E). Akt was immunoprecipitated from those lysates using anti-Akt antibodies, incubated with a fusion peptide containing the 20 N-terminal amino acids of GSK3β and analyzed in Western-blots probed using anti-phospho-serine 9 GSK3β antibodies (panel F).
To pursue this pathway of nuclear import of β-catenin, HUVS cells were stimulated with PTN (50 ng/ml), lysed, and analyzed in Western blots probed with anti-phosphothreonine 308 Akt or anti-phosphoserine 473 Akt antibodies (FIG. 11, panel A and B). […]
The association of adaptor proteins that associate with specific phosphorylated sites in activated EGFR are responsible for the activation of phosphatidyl-inositol 3-kinase (PI3K). […] The cells were stimulated with PTN for 2, 5, 10, and 20 minutes, cell lysates were prepared, and the lysates were analyzed in Western blots probed with anti-phospho-Akt (Ser473), anti-phospho-GSKβ (Ser9), and anti-phospho-β-catenin (Thr42) antibodies. […]

[3] = system: β-catenin; test: tyrosine phosphorylation of β-catenin in PTN-stimulated U87MG cells; format: cell-based, human; conditions: U87MG cells preincubated with inhibitor; 50 ng PTN/ml
Procedure: as §1, with “In (B), ALK and RPTPβ/ζ, but not Src, are necessary for PTN to stimulate tyrosine phosphorylation of activation of β-catenin. U87MG cells and U87MG cells that had been transfected with an shRNA targeting either RPTPβ/ζ or ALK or preincubated with the src inhibitor PP2 were stimulated with 50 ng PTN/ml or not (control) and cell lysates used to immunoprecipitate β-catenin.” left out, “antibodies.” for “antibodies. Lysates of MCF-7 cells transfected with ALK and stimulated with PTN, EGF or pervanadate were immunoprecipitated with anti-β-catenin antibodies and the immunoprecipitates were analyzed in Western blots probed with anti-phospho-tyrosine antibodies and separately with anti-β-catenin antibodies.”

[4] = system: ALK; test: tyrosine phosphorylation of ALK in MCF-7-EGFR/RPTPβ/ζ cells; format: cell-based; conditions: EGF at 1 minute and at 5 minutes
[5] = system: MDA-MB-231 cell xenograft; test: MDA-MB-231 xenograft growth in flanks of nude mice; format: in vivo; conditions: 50 mg/kg daily oral gavage
Procedure: FIG. 22: FIG. 22 illustrates: in (A), the c-met/ALK dual inhibitor PF2341066 blocks growth of MDA-MB-231 cells. MDA-MB-231 breast cancer cells were treated with 1 nM, 10 nM, 100 nM, and 1 μM PF2341066, the number of viable cells was counted for ten days, and represented as average with standard deviation. In (B), The c-met/ALK dual inhibitor PF2341066 blocks growth of T47D cells. T47D breast cancer cells were treated with 1 nM, 10 nM, 100 nM, and 1 μM PF2341066, the number of viable cells was counted for ten days, and represented as average with standard deviation. In (C), The ALK inhibitor PF2341066 delays MDA-MB-231 cell growth as tumors in flanks of nude mice. MDA-MB-231 cells were injected in flanks of nude mice. The mice were divided in two groups, which were given 50 mg/kg PF2341066 daily by oral gavage or an equal volume of DMSO as control. Tumor size was measured daily and is represented as average tumor burden in each group. […]
Male athymic nude mice (8 weeks old, Cby.Cg-Foxn1nu) were used. […] The sites of injection were observed daily for tumor growth beginning 1 day after injection and tumor length (L) and width (W) were measured, and tumor volume was estimate using the formula (LXW2)/2.

[6] = system: MDA-MB-231 cells; test: growth of MDA-MB-231 breast cancer cells in culture (viable cell count); format: cell-based, human
Procedure: (§2) FIG. 22: FIG. 22 illustrates: in (A), the c-met/ALK dual inhibitor PF2341066 blocks growth of MDA-MB-231 cells. MDA-MB-231 breast cancer cells were treated with 1 nM, 10 nM, 100 nM, and 1 μM PF2341066, the number of viable cells was counted for ten days, and represented as average with standard deviation. In (B), The c-met/ALK dual inhibitor PF2341066 blocks growth of T47D cells. T47D breast cancer cells were treated with 1 nM, 10 nM, 100 nM, and 1 μM PF2341066, the number of viable cells was counted for ten days, and represented as average with standard deviation. In (C), The ALK inhibitor PF2341066 delays MDA-MB-231 cell growth as tumors in flanks of nude mice. MDA-MB-231 cells were injected in flanks of nude mice. The mice were divided in two groups, which were given 50 mg/kg PF2341066 daily by oral gavage or an equal volume of DMSO as control. Tumor size was measured daily and is represented as average tumor burden in each group.
(§3) The MDA-MB-231 (FIG. 22A) and T47D (FIG. 22B) cells were then treated with the ALK inhibitor PF2341066.
(§4) MDA-MB-231, MCF-7, and T47D cells were obtained from American Tissue Collection Center (ATCC) and grown in DMEM supplemented with 10% fetal bovine serum (FBS) and 1% penicillin/streptomycin at 37° C. in a 5% CO2 atmosphere. […]

[7] = system: T47D cells; test: growth of T47D breast cancer cells in culture (viable cell count); format: cell-based, human
Procedure: as §2, §3, §4

[8] = system: β-catenin; test: ubiquitination of β-catenin in HUVS cells (Rad23 capture); format: cell-based, human; conditions: PTN-stimulated cells pre-incubated with proteasome inhibitor
Procedure: FIG. 12: FIG. 12 illustrates: human umbilical vein stromal cells not stimulated (lane 1) or stimulated with 50 ng/ml of PTN for 15 (lane 2), or 30 minutes (lane 3) were used to prepare cell lysates that were incubated with Rad23-conjugated agarose beads to pull-down ubiquitinated proteins and analyzed in Western-blots probed with anti-β-catenin antibodies (upper panel) and reprobed with anti-ubiquitin antibodies (lower panel). Cells pre-incubated with LY294002 were stimulated with PTN for 15 minutes (lane 4). Cells pre-incubated with lactacystin were stimulated with PTN for 15 minutes (lane 5).
Human umbilical vein stromal cells were lysed in a buffer prepared with 50 mM Tris, pH 7.2, 150 mM NaCl pH 7.5, 1% NP40, 0.25% sodium deoxicholate, Complete EDTA-free Protease Inhibitor Cocktail and 2 mM sodium orthovanadate. […] The beads were washed 4 times with lysis buffer and analyzed using Western blots.
β-catenin is rapidly degraded through the ubiquitin proteasome proteolytic pathway, thereby setting steady state levels of β-catenin by balancing its degradation with new synthesis of this key regulatory protein. […] Proteins captured with Rad23 Sepharose were eluted and analyzed in Western blots probed with anti-β-catenin antibodies (FIG. 12, upper panel) and the blots were reprobed with anti-ubiquitin antibodies (FIG. 12, lower panel). […]

sodium pervanadate [reference compound]
increase in tyrosine phosphorylation of β-catenin ([1]; stimulated with sodium pervanadate): about 17 fold

COc1cc2ncnc(Nc3cccc(Cl)c3)c2cc1OC [AG1478, reference compound]
PTN-stimulated activation of Akt (phospho-Akt serine 473) [2]: effectively prevented

CC(C)(C)n1nc(-c2ccc(Cl)cc2)c2c(N)ncnc21 [PP2, reference compound]
inhibition of PTN-stimulated tyrosine phosphorylation of β-catenin [3]: failed to inhibit

epidermal growth factor [EGF]
tyrosine phosphorylation of ALK [4]: marked increase | increase in tyrosine phosphorylation of β-catenin ([1]; 1 minute after stimulation with EGF): about 11 fold | tyrosine phosphorylation of β-catenin ([1]; 5 minutes after stimulation with EGF): Even higher levels

C[C@@H](Oc1cc(-c2cnn(C3CCNCC3)c2)cnc1N)c1c(Cl)ccc(F)c1Cl [PF2341066]
reduction of tumor burden ([5]; day 22): about 3.5 fold | reduction of tumor burden ([5]; end of the experiment): about 3 fold | proliferation of MDA-MB-231 cells ([6]; 1 nM-1 μM, ten days): dose-dependent block in proliferation | growth of MDA-MB-231 cells ([6]; 1 μM): effectively prevented growth | proliferation of T47D cells ([7]; 1 nM-1 μM, ten days): dose-dependent block in proliferation | reduction of T47D cell growth ([7]; 1 μM): about 13 fold

CC(=O)N[C@@H](CSC(=O)[C@]1([C@@H](O)C(C)C)NC(=O)[C@H](C)[C@@H]1O)C(=O)O [lactacystin, reference compound]
ubiquitinated β-catenin levels [8]: remained at the level in HUVS cells not stimulated with PTN
